The results in this text go back to ChEMBL document CHEMBL1221370, “Steroidal saponins from fresh stems of Dracaena angustifolia” (J Nat Prod, 2010).

Format in all cases: functional, organism-based
One assay relates to Cryptococcus neoformans. Kind of assay: Antifungal activity against Cryptococcus neoformans ATCC 90113 by broth dilution method. In general terms: Dilution methods test growth across graded concentrations, often in twofold steps.
The test system of the next assay is Candida albicans. Kind of assay: Antifungal activity against Candida albicans ATCC 90028 by broth dilution method.
For the next assay, the system named is Nakaseomyces glabratus. Put plainly: Antifungal activity against Candida glabrata ATCC 90030 by broth dilution method.
In a further assay the test system is Pichia kudriavzevii. Kind of assay: Antifungal activity against Candida krusei ATCC 6258 by broth dilution method.
Another assay relates to Aspergillus fumigatus. Put plainly: Antifungal activity against Aspergillus fumigatus ATCC 90906 by broth dilution method.

The structures appear in SMILES notation. In brackets after ≈: the same amount, converted by molar mass. Activity calls are given as the source filed them. The rule behind the calls is not given here.

In the case of `C=C1CC[C@@]2(OC1)OC1C[C@H]3[C@@H]4CC=C5C[C@@H](O)C[C@@H](O[C@@H]6OC[C@H](OS(=O)(=O)O)[C@H](O)[C@H]6O[C@@H]6O[C@@H](C)[C@H](O)[C@@H](O)[C@H]6O)[C@]5(C)[C@H]4CC[C@]3(C)[C@H]1[C@@H]2C` (stereo partly specified), the outcome in the assay with Cryptococcus neoformans, in the assay on Candida albicans, in the assay with Nakaseomyces glabratus, in the assay on Pichia kudriavzevii and in the assay with Aspergillus fumigatus was inactive.

`C=C1CC[C@@]2(OC1)OC1C[C@H]3[C@@H]4[C@@H](O)C=C5C[C@@H](O)C[C@@H](O[C@@H]6OC[C@H](OS(=O)(=O)O)[C@H](O)[C@H]6O[C@@H]6O[C@@H](C)[C@H](O)[C@@H](O)[C@H]6O)[C@]5(C)[C@H]4CC[C@]3(C)[C@H]1[C@@H]2C` (stereo partly specified): the result in the assay on Cryptococcus neoformans, with Candida albicans, in the assay on Nakaseomyces glabratus, in the assay on Pichia kudriavzevii and in the assay on Aspergillus fumigatus was inactive.

Turning to `C[C@@H]1[C@H](O)[C@@H](C)/C=C/C=C/C=C/C=C/C=C/C=C/C=C/[C@H](O[C@@H]2O[C@H](C)[C@@H](O)[C@H](N)[C@@H]2O)C[C@@H]2O[C@](O)(C[C@@H](O)C[C@@H](O)[C@H](O)CC[C@@H](O)C[C@@H](O)CC(=O)O[C@H]1C)C[C@H](O)[C@H]2C(=O)O` [AMPHOTERICIN B], in the assay with Cryptococcus neoformans, the 50% inhibitory concentration (IC50) (commonly the concentration that gives 50% inhibition) was 2.5 µg/mL (≈ 2.71 µM).

`C[C@H]1CC[C@@]2(OC1)OC1C[C@H]3[C@@H]4C(=O)C=C5C[C@@H](O)C[C@@H](O[C@@H]6OC[C@H](OS(=O)(=O)O)[C@H](O)[C@H]6O[C@@H]6O[C@@H](C)[C@H](O)[C@@H](O)[C@H]6O)[C@]5(C)[C@H]4CC[C@]3(C)[C@H]1[C@@H]2C` (stereo partly specified): the result in the assay with Cryptococcus neoformans, with Candida albicans, in the assay on Nakaseomyces glabratus, with Pichia kudriavzevii and in the assay on Aspergillus fumigatus was inactive.

`C=C1CO[C@]2(C[C@H]1O)OC1C[C@H]3[C@@H]4CC=C5C[C@@H](O)C[C@@H](O[C@@H]6OC[C@H](OS(=O)(=O)O)[C@H](O)[C@H]6O[C@@H]6O[C@@H](C)[C@H](O)[C@@H](O)[C@H]6O)[C@]5(C)[C@H]4CC[C@]3(C)[C@H]1[C@@H]2C` (stereo partly specified): the result with Cryptococcus neoformans, in the assay with Candida albicans, in the assay on Nakaseomyces glabratus, with Pichia kudriavzevii and in the assay with Aspergillus fumigatus was inactive.

Compound `C[C@H]1CC[C@@]2(OC1)OC1C[C@H]3[C@@H]4CC=C5C[C@@H](O)C[C@@H](O[C@@H]6OC[C@H](O)[C@H](O)[C@H]6O[C@@H]6O[C@@H](C)[C@H](O)[C@@H](O)[C@H]6O)[C@]5(C)[C@H]4CC[C@]3(C)[C@H]1[C@@H]2C` (stereo partly specified) showed an IC50 in the assay on Cryptococcus neoformans of 20 µg/mL (≈ 28.2 µM). The result with Candida albicans, in the assay with Nakaseomyces glabratus, in the assay with Pichia kudriavzevii and in the assay with Aspergillus fumigatus was inactive.

In the assay on Cryptococcus neoformans, `C[C@H]1CC[C@@]2(OC1)OC1C[C@H]3[C@@H]4CC=C5C[C@@H](O)C[C@@H](O[C@@H]6OC[C@H](O)[C@H](O[C@@H]7OC[C@@H](O)[C@H](O)[C@H]7O)[C@H]6O)[C@]5(C)[C@H]4CC[C@]3(C)[C@H]1[C@@H]2C` (stereo partly specified) [ANGUDRACANOSIDE F] had an IC50 of 9.5 µg/mL (≈ 13.7 µM). Besides, the result in the assay on Candida albicans, in the assay on Nakaseomyces glabratus, with Pichia kudriavzevii and with Aspergillus fumigatus was inactive.
